In US20240226103A1, “SOLID DISPERSION OF A HER2 INHIBITOR” (Boehringer Ingelheim International GmbH, priority 2022, published 2024):
In brackets after ≈: the same amount, converted by molar mass. Read-outs that look alike come from different tables or passages of the source.

How the values were obtained:
Assay type in all cases: physicochemical
[1] = Equilibrium solubility in aqueous media at different pH and in biorelevant media (UPLC-UV-MS); conditions: for Equilibrium solubility Conc.: 24 h; for solubility thermodynamic at 24 h: thermodynamic from solid, read-out: Equilibrium solubility Conc.
Procedure: Discard the first ˜3.5 mL then collect 3 aliquots (˜0.5 mL) to be analyzed. • Quantification of the 3 aliquots by UPLC-UV-MS with the appropriate calibration curve.
• Instrument: Waters Acquity H-Class with PDA and QDa detectors • Column: Waters Acquity BEH C18, 1.7 μm, 2.1×50 mm • Flow rate: 0.65 mL/min • UV detection: 254 nm or 410 nm • Column temperature: 40° C.±2° C. • Sample temperature: 23° C.±2° C. • Injection volumes: 0.4 μL (for concentration between 1-500 μg/mL) and 9 μL (for concentration between 0.050-1 μg/mL) • Mobile phase: gradient with solutions A and B prepared as follows
• Ionisation mode: ESI+/ESI− • Source temperature: 600° C. • Capillary voltage: 0.8 kV • Cone voltage: +20V/−20V
Two standard calibration curves (chromatographic UV peak area vs. concentration) are established in DMSO at 254 nm or 410 nm for each solid form and for the solid dispersion, one between 0.025 or 0.050 μg/mL and 1 μg/mL (injection volume=9 μL) and another between 1 μg/mL and 500 μg/mL (injection volume=0.4 μL). The calibration curves are linear in the whole investigated concentration range.

[2] = pH-dependent solubility of compound (1) in aqueous media
From the text: Consequently, the in vivo absorption of compound (1) is affected by gastric pH. […] Such a decrease may occur to different extents in different patients due to inter-patient stomach pH variability.

[3] = Organic solubility screening in DCM:methanol solvent blends (visual observation)
Procedure: Solubility is determined by visual observation.

[4] = Acetate Buffer pH 4, room temperature
[5] = Phosphate Buffer pH 7.4, room temperature

SMILES	Equilibrium solubility Conc. [1, 4] [µg/mL]	solubility thermodynamic at 24 h ([1]; FaSSIF, 37 °C, pH 6.5, fassif, FaSSIF pH 6.5, 37° C.) [µg/mL]	solubility thermodynamic at 24 h ([1]; FeSSIF, 37 °C, pH 5, fessif, FeSSIF pH 5.0, 37° C.) [µg/mL]	solubility thermodynamic at 24 h ([1]; HCl 0.01N, pH 2, simulated gastric fluid, HCl 0.01N pH 2, room temperature) [µg/mL]	Equilibrium solubility Conc. [1, 5] [µg/mL]	solubility thermodynamic at 24 h ([1]; acetate buffer, pH 5, aqueous buffer, Acetate Buffer pH 5, room temperature) [µg/mL]	solubility thermodynamic at 24 h ([1]; phosphate buffer, pH 6.8, aqueous buffer, Phosphate Buffer pH 6.8, room temperature) [µg/mL]	Equilibrium solubility Conc. ([1]; Acetate Buffer pH 5, room temperature) [µg/mL]	Equilibrium solubility Conc. ([1]; FaSSIF pH 6.5, 37° C.) [µg/mL]	Equilibrium solubility Conc. ([1]; FeSSIF pH 5.0, 37° C.) [µg/mL]	Equilibrium solubility Conc. ([1]; HCl 0.01N pH 2, room temperature) [µg/mL]	Equilibrium solubility Conc. ([1]; Phosphate Buffer pH 6.8, room temperature) [µg/mL]	decrease in solubility between pH 1.2 and pH 6.8 [2]	Solubility ([3]; DCM:methanol 70:30) [wt %]	Solubility ([3]; DCM:methanol 80:20) [wt %]	Solubility ([3]; DCM:methanol 90:10) [wt %]
C=CC(=O)NC1CCN(c2ncc3ncnc(Nc4ccc(Oc5ccc6c(c5)ncn6C)c(C)c4)c3n2)CC1 [compound (1) Form III, N-{1-[8-({3-methyl-4-[(1-methyl-1H-1,3-benzodiazol-5-yl)oxy]phenyl}amino)-[1,3]diazino[5,4-d]pyrimidin-2-yl]piperidin-4-yl}prop-2-enamide]	6.6	0.803 (≈ 1.5 µM)	49 (≈ 91.5 µM)	1320 (≈ 2470 µM)	0.056	0.126 (≈ 0.235 µM)	0.025 (≈ 0.0467 µM)	–	–	–	–	–	–	–	–	–
C=CC(=O)NC1CCN(c2ncc3ncnc(Nc4ccc(Oc5ccc6c(c5)ncn6C)c(C)c4)c3n2)CC1 [compound (1) Form IV, N-{1-[8-({3-methyl-4-[(1-methyl-1H-1,3-benzodiazol-5-yl)oxy]phenyl}amino)-[1,3]diazino[5,4-d]pyrimidin-2-yl]piperidin-4-yl}prop-2-enamide]	3	–	–	–	0.018	–	–	0.075	0.726	44	761	0.027	–	–	–	–
C=CC(=O)NC1CCN(c2ncc3ncnc(Nc4ccc(Oc5ccc6c(c5)ncn6C)c(C)c4)c3n2)CC1 [compound (1), N-{1-[8-({3-methyl-4-[(1-methyl-1H-1,3-benzodiazol-5-yl)oxy]phenyl}amino)-[1,3]diazino[5,4-d]pyrimidin-2-yl]piperidin-4-yl}prop-2-enamide]	–	–	–	–	–	–	–	–	–	–	–	–	about 10^5 fold	>16.8	>18.7	>17.1
